These results are taken from patent US6451804B1, “Heteroalkylamino-substituted bicyclic nitrogen heterocycles” (Syntex (U.S.A.) LLC, priority 1999, dated 2002).

Structures are written as SMILES. Counter-ions that a name gives are not always drawn. Some results are limits rather than exact numbers.

The molecule `C[C@@H](CO)Nc1ncc2c(n1)N(C1CCNCC1)C(=O)N(c1ccccc1Cl)C2` (as salt: hydrochloride) showed a melting point of 244 to 248 °C. Under `Cc1ccccc1N1Cc2cnc(NC3CCN(Cc4ccccc4)CC3)nc2N(C)C1=O` (as salt: hydrochloride) [Compound 2-9, 7-(1-benzylpiperidin-4-ylamino)-1-methyl-3-ortho-tolyl-3,4-dihydropyrimido[4,5-d]pyrimidin-2(1H)-one] stands 253 to 253.9 °C. With `Cc1ccccc1N1Cc2cnc(NC3CCN(C[C@@H](O)CO)CC3)nc2N(C)C1=O` (as salt: hydrochloride) [Compound 2-14, (R)-7-[1-(2,3-dihydroxypropyl)piperidin-4-ylamino]-1-methyl-3-ortho-tolyl-3,4-dihydropyrimido[4,5-d]pyrimidin-2(1H)-one] the figure was 195 to 208 °C; with `Cc1ccccc1N1Cc2cnc(NC3CCN(CCC#N)CC3)nc2N(C)C1=O` (as salt: hydrochloride) [Compound 2-15, 7-[1-(2-cyanoethyl)-piperidin-4-ylamino]-1-methyl-3-ortho-tolyl-3,4-dihydropyrimido[4,5-d]pyrimidin-2(1H)-one], 195 to 208.5 °C; with `CN(C)C(=O)CN1CCC(CNc2ncc3c(n2)NC(=O)N(c2ccccc2Cl)C3)CC1` (as salt: hydrochloride) [Compound 2-19, 3-(2-chlorophenyl)-7-[(1-dimethylaminocarbonylmethylpiperidin-4-ylmethyl)amino]-3,4-dihydropyrimido[4,5-d]pyrimidin-2(1H)-one], 210.2 to 214.4 °C. Under `N#CCN1CCC(CNc2ncc3c(n2)NC(=O)N(c2ccccc2Cl)C3)CC1` (as salt: hydrochloride) [Compound 2-22, 3-(2-chlorophenyl)-7-[(1-cyanomethylpiperidin-4-ylmethyl)amino]-3,4-dihydropyrimido[4,5-d]pyrimidin-2(1H)-one] stands 207.2 to 207.7 °C; under `NC(=O)CN1CCC(CNc2ncc3c(n2)NC(=O)N(c2ccccc2Cl)C3)CC1` (as salt: hydrochloride) [Compound 2-23, 3-(2-chlorophenyl)-7-[(1-aminocarbonylmethylpiperidin-4-ylmethyl)amino]-3,4-dihydropyrimido[4,5-d]pyrimidin-2(1H)-one], 229.9 to 232.2 °C.

In turn, `O=C(O)CN1CCC(CNc2ncc3c(n2)NC(=O)N(c2ccccc2Cl)C3)CC1` (as salt: hydrochloride) [Compound 2-24, 3-(2-chlorophenyl)-7-[(1-hydroxycarbonylmethylpiperidin-4-ylmethyl)amino]-3,4-dihydropyrimido[4,5-d]pyrimidin-2(1H)-one] showed a melting point of 215 to 219 °C. With `CCOCC(COCC)N1C(=O)N(c2ccccc2Cl)Cc2cnc(N[C@H](C)CO)nc21` (as salt: hydrochloride) [Compound 3-21, (R)-3-(2-chlorophenyl)-7-[(2-hydroxy-1-methylethyl)amino]-1-(2-ethoxy-1-ethoxymethylethyl)-3,4-dihydropyrimido[4,5-d]pyrimidin-2(1H)-one] the figure was 169.7 to 175.1 °C; with `CN1C(=O)N(c2ccccc2Cl)Cc2cnc(NC(C)(C)C(O)CO)nc21` (centres unmarked) (as salt: hydrochloride) [Compound 3-28, 3-(2-chlorophenyl)-7-(2,3-dihydroxy-1,1-dimethylpropylamino)-1-methyl-3,4-dihydropyrimido[4,5-d]pyrimidin-2(1H)-one], 203.1 to 204.1 °C; with `CN1C(=O)N(c2ccccc2Cl)Cc2cnc(NC3(CO)CCCCC3)nc21` (as salt: hydrochloride) [Compound 3-43, 3-(2-chlorophenyl)-7-[(1-hydroxymethylcyclohexyl)amino]-1-methyl-3,4-dihydropyrimido[4,5-d]pyrimidin-2(1H)-one], 203.7 to 207.8 °C. As to `CN1C(=O)N(c2ccccc2Cl)Cc2cnc(NC3CCC(=O)CC3)nc21` (as salt: hydrochloride) [Compound 3-46, 3-(2-chlorophenyl)-7-(4-oxo-cyclohexylamino)-1-methyl-3,4-dihydropyrimido[4,5-d]pyrimidin-2(1H)-one], the melting point lay within 233.4 to 236.3 °C.

Molecule `O=C1N(c2ccccc2Cl)Cc2cnc(N[C@H]3CC[C@H](O)CC3)nc2N1Cc1ccccc1` (as salt: hydrochloride) [Compound 3-48, 1-benzyl-3-(2-chlorophenyl)-7-(trans-4-hydroxycyclohexylamino)-3,4-dihydropyrimido[4,5-d]pyrimidin-2(1H)-one] registered a melting point of 218.5 to 221 °C. With `Cc1ccccc1N1Cc2cnc(N[C@H](C)[C@@H](O)CO)nc2NC1=O` (as salt: hydrochloride) [Compound 4-4, (R,R)-7-(2,3-dihydroxy-1-methylpropylamino)-3-ortho-tolyl-3,4-dihydropyrimido[4,5-d]pyrimidin-2(1H)-one] the figure was 161 to 172 °C; with `CC(=O)O[C@H]1CC[C@H](Nc2ncc3c(n2)NC(=O)N(c2ccccc2Cl)C3)CC1` (as salt: hydrochloride) [Compound 4-13, 7-(trans-4-acetyloxycyclohexylamino)-3-(2-chlorophenyl)-3,4-dihydropyrimido[4,5-d]pyrimidin-2(1H)-one], over 300 °C.

In turn, `O=C1Nc2nc(NCC3CCC(O)CC3)ncc2CN1c1ccccc1Cl` (centres unmarked) (as salt: hydrochloride) [Compound 4-17, 3-(2-chlorophenyl)-7-[(4-hydroxycyclohexylmethyl)amino]-3,4-dihydropyrimido[4,5-d]pyrimidin-2(1H)-one] had a melting point of 208.3 to 217.9 °C. With `COC(=O)O[C@H]1CC[C@H](Nc2ncc3c(n2)NC(=O)N(c2ccccc2Cl)C3)CC1` (as salt: hydrochloride) [Compound 4-20, 3-(2-chlorophenyl)-7-(trans-4-methoxycarbonyloxycyclohexylamino)-3,4-dihydropyrimido[4,5-d]pyrimidin-2(1H)-one] the figure was over 260 °C; with `NC(=O)O[C@H]1CC[C@H](Nc2ncc3c(n2)NC(=O)N(c2ccccc2Cl)C3)CC1` (as salt: hydrochloride) [Compound 4-21, 7-(trans-4-carbamoyloxycyclohexylamino)-3-(2-chlorophenyl)-3,4-dihydropyrimido[4,5-d]pyrimidin-2(1H)-one], 267 to 267.6 °C; with `CNC(=O)O[C@H]1CC[C@H](Nc2ncc3c(n2)NC(=O)N(c2ccccc2Cl)C3)CC1` (as salt: hydrochloride) [Compound 4-22, 3-(2-chlorophenyl)-7-(trans-4-methylaminocarbonyloxycyclohexylamino)-3,4-dihydropyrimido[4,5-d]pyrimidin-2(1H)-one], 269 to 271 °C. With `O=C1CCC(Nc2ncc3c(n2)NC(=O)N(c2ccccc2Cl)C3)CC1` (as salt: hydrochloride) [Compound 4-23, 3-(2-chlorophenyl)-7-(4-oxo-cyclohexylamino)-3,4-dihydropyrimido[4,5-d]pyrimidin-2(1H)-one] the figure was 204 to 210 °C. Under `O=C1Nc2nc(NC3CCC4(CC3)OCCO4)ncc2CN1c1ccccc1Cl` (as salt: hydrochloride) [Compound 4-24, 3-(2-chlorophenyl)-7-(1,4-dioxaspiro[4.5]dec-8-ylamino)-3,4-dihydropyrimido[4,5-d]pyrimidin-2(1H)-one] stands 173.6 to 189.7 °C; under `C[C@@H](O)[C@H](CO)Nc1ncc2c(n1)N(C)C(=O)N(c1ccccc1Cl)C2` (stereo in doubt) (as salt: hydrochloride) [Compound 1-13, 3-(2-chlorophenyl)-7-((1S,2R)-2-hydroxy-1-hydroxymethyl-propylamino)-1-methyl-3,4-dihydropyrimido-[4,5-d]pyrimidin-2(1H)-one], 199 to 204 °C. Take `Cc1ccccc1N1Cc2cnc(NC3CCN(CCO)CC3)nc2N(C)C1=O` [Compound 2-13, 7-[1-(2-hydroxyethyl)-piperidin-4-ylamino]-1-methyl-3-ortho-tolyl-3,4-dihydropyrimido[4,5-d]pyrimidin-2(1H)-one]: the melting point lay in the range of 250 to 257 °C.

`Cc1ccccc1N1Cc2cnc(N[C@H](C)[C@@H](O)CO)nc2N(C)C1=O` [Compound 3-23, 7-((R,R)-2,3-dihydroxy-1-methylpropylamino)-3-ortho-tolyl-1-methyl-3,4-dihydropyrimido[4,5-d]pyrimidin-2(1H)-one] showed a melting point of 119.8 to 121.8 °C.

Turning to `COC(=O)CN1C(=O)N(c2ccccc2Cl)Cc2cnc(N[C@H]3CC[C@H](O)CC3)nc21` [Compound 3-49, 3-(2-chlorophenyl)-7-(trans-4-hydroxycyclohexylamino)-1-methoxycarbonylmethyl-3,4-dihydropyrimido[4,5-d]pyrimidin-2(1H)-one], the melting point is 212 to 215 °C.

On to `O=C(O)CN1C(=O)N(c2ccccc2Cl)Cc2cnc(N[C@H]3CC[C@H](O)CC3)nc21` [Compound 3-53, 3-(2-chlorophenyl)-7-(trans-4-hydroxycyclohexylamino)-1-hydroxycarbonylmethyl-3,4-dihydropyrimido[4,5-d]pyrimidin-2(1H)-one], for which the melting point is 230 to 240 °C. With `N#CCN1C(=O)N(c2ccccc2Cl)Cc2cnc(N[C@H]3CC[C@H](O)CC3)nc21` [Compound 3-55, 3-(2-chlorophenyl)-7-(trans-4-hydroxycyclohexylamino)-1-cyanomethyl-3,4-dihydropyrimido[4,5-d]-pyrimidin-2(1H)-one] the figure was 130.8 °C; with `O=C1N(c2ccccc2Cl)Cc2cnc(N[C@H]3CC[C@H](O)CC3)nc2N1CCO` [Compound 3-56, 3-(2-chlorophenyl)-7-(trans-4-hydroxycyclohexylamino)-1-(2-hydroxyethyl)-3,4-dihydropyrimido[4,5-d]pyrimidin-2(1H)-one], 96.6 to 122.8 °C; with `O=CO[C@H]1CC[C@H](Nc2ncc3c(n2)NC(=O)N(c2ccccc2Cl)C3)CC1` [Compound 4-15, 3-(2-chlorophenyl)-7-(trans-4-formyloxycyclohexylamino)-3,4-dihydropyrimido[4,5-d]pyrimidin-2(1H)-one], over 300 °C.
